# From patent US20220039907A1, “Inhibiting Post-Biopsy Inflammation and Metastasis” (The Board of Regents of the University of Oklahoma, priority 2020, published 2022)
# Legend:
# [1] = system: bone marrow-derived primary Mϕ; assay: PGE2-mediated arginase expression in bone marrow-derived primary Mϕ with EP inhibitors; type: cell-based; conditions: Mϕ incubated with PGE2 and selective EP inhibitor
# Procedure: (§1) To further identify the biological consequences of abundant PGE2, the bone marrow-derived primary Mϕ was incubated with 10 μM PGE2. […] PGE2 exerts its action through 4 integral membranous E prostanoid receptors (EP1, EP2, EP3, and EP4). The Mϕ was incubated with PGE2 and selective pharmacologic inhibitors against respective prostaglandin E2 receptor (EP2).
# primary mouse MSCs = assay: Biopsy-WF induced PGE2 release from primary mouse MSCs; type: cell-based; conditions: primary mouse MSCs treated with biopsy-WF
# [2] = system: VCAM1 expression in End.3; assay: PGE2-induced VCAM1 expression in End.3 with selective EP antagonists; type: cell-based, murine; conditions: End.3 cells, PGE2 stimulated
# From the text: (§2) Inflamed vessels serve as a gateway for MSCs to enter tissue parenchyma. VCAM1 engagement to integrin α4β1 (very late antigen 4; VLA4) mediates shear resistant adhesion of MSCs to the vessel wall that leads to their trans-endothelial migration. […] Similarly, VCAM1 vascular expression was elevated in PGE2 treated mice compared to untreated ones (FIG. 10(B)). Accordingly, shear resistant adhesion of human MSCs was 2-fold higher to PGE2 treated HMVECs than to untreated ones; however, VCAM1 neutralizing antibody abrogated PGE2-induced shear resistant adhesion of MSCs (FIG. 10(C)). […] The white circle in the left panel of FIG. 10(D) indicates infiltrating GFP+ MSCs, and the inset in the upper left corner is a close-up image of the corresponding location. Since VLA4 is the ligand for VCAM1, and conformational change of VLA4 is prerequisite for binding to VCAM1, ligand binding assay using FITC-LDV peptide (which selectively binds to an active form of VLA4) was performed.
# PGE2 exerts its action through the binding to 4 types of prostaglandin E receptor (EP1, 2, 3, and 4), which ubiquitously express in various cell types. Human endothelial cells express all 4 types of EP receptors. […] Therefore, without wishing to be bound by theory, an explanation of biopsy-induced metastasis is that systemic availability of PGE2 leads to an elevation of VCAM1 expression in the pulmonary vessels through the EP4 receptor, resulting in increased MSCs tissue infiltration that initiates a provisional PMN in the perivascular space of the lungs (see overview model in FIG. 8).
# Py230mCherry tumor = assay: Biopsy-induced lung metastasis in Py230mCherry tumor bearing mice, oral COX2/EP2 inhibitors; type: in vivo; conditions: daily following biopsy, n=15 per group
# 4T1-Luc tumors = assay: Organ metastasis-free survival of 4T1-Luc tumor mice with or without biopsy, oral ibuprofen; type: in vivo
# Procedure: To experimentally explore the hypothesis that inhibition of PGE2 biosynthesis by NSAIDs diminishes biopsy-induced metastasis, 4T1-Luc tumors were biopsied or left unbiopsied (n=10 per group) once tumor size reached 100 mm^3. One day later, daily oral ibuprofen (non-selective COX inhibitor) or saline was started (50 mg/kg) for 9 days, until the day before mastectomy. Mice were then monitored for metastasis over the next 3 months. […] In contrast, cellularity and COX2 expression in the biopsy wound were far less in mice that were treated with ibuprofen (FIG. 12(B)).
# [3] = system: PGE2 level in biopsied mouse tumors; assay: PGE2 level in biopsied mouse tumors after oral ibuprofen; type: in vivo; conditions: oral administration; to a level equal to the unbiopsied tumor
# py230 BC cells = assay: Experimental metastasis model: intravenous PGE2 priming followed by py230 BC cell injection; type: in vivo; conditions: intravenous PGE2 at level equal to post-biopsy blood, versus untreated mice
# From the text: Wounding triggers a repair cascade by forming a fibrin matrix containing a series of chemo-attractants (e.g., TGF-β, bFGF, PDGF, TNFα, and EGF) that recruit MSCs from bone marrow to the injured site. MSCs produce innumerable growth factors, cyto-chemokines, and metabolites that promote angiogenesis, immunomodulation, and ECM remodeling in order to repair the damaged tissue. […] MSC2 is characterized by a high level of PGE2 release, a potent vasodilater. […] Given the high interstitial pressure coupled with insufficient lymphatic drainage due to superficial lymphatic vessels in solid tumors, soluble factors seep into the circulation from the tumor. Accordingly, PGE2 levels in the blood were 3 times higher in the biopsied mice compared to that in mice bearing unbiopsied tumors or mice without tumor burden (FIG. 6(C)). PGE2 is enzymatically converted from arachidonic acid by the rate-limiting enzyme Cyclooxygenase (COX). COX2 expression is induced by inflammatory stimuli, whereas COX1 is constitutive. […] However, the biologic mechanism by which circulating PGE2 promotes metastasis has heretofore remained unknown.
# PGE2-induced hyper-permeation sites indicated by leakage of 40 kDa FITC-dextran (green) coincided with accumulation of SSEA4^+ MSCs (red), a key component of the PMN^51 (FIG. 9(C)).
# pulmonary vessels = assay: Pulmonary vessel permeability (Evans Blue leakage) after intravenous PGE2; type: in vivo, mice; conditions: intravenous injection, versus saline
# [4] = system: human microvessel endothelial cells (HMVECs); assay: PGE2 induction of VCAM1 mRNA in HMVECs; type: cell-based; conditions: PGE2 level equivalent to post-biopsy blood
# From the text: as §2
# [5] = system: murine endothelial cell line (End.3); assay: PGE2 induction of VCAM1 mRNA in End.3; type: cell-based; conditions: End.3, PGE2 level equivalent to post-biopsy blood
# From the text: as §2
# [6] = system: VCAM1 vascular expression; assay: VCAM1 vascular expression in PGE2 treated mice; type: in vivo; conditions: PGE2 treated versus untreated mice
# From the text: as §2
# HMVECs = assay: Shear resistant adhesion of human MSCs to HMVECs; type: cell-based; conditions: PGE2 treated HMVECs versus untreated
# From the text: as §2
# [7] = system: bone marrow-derived primary Mϕ; assay: Quantitative PCR of M2/M1 marker mRNAs in bone marrow-derived primary Mϕ incubated with PGE2; type: cell-based; conditions: 10 μM PGE2
# Procedure: as §1
# lung = assay: Adoptive transfer of GFP+ MSCs into PGE2 pre-treated mice; type: in vivo
# From the text: as §2
structure (smiles),measurement,setting,value
COc1ccc(Br)cc1S(=O)(=O)NC(=O)/C=C/c1ccccc1Cc1ccc2ccccc2c1 [L-798106],PGE2-mediated arginase expression,[1],no inhibitory effect
COc1ccc2c(c1)c(CC(=O)O)c(C)n2C(=O)c1ccc(Cl)cc1 [indomethacin],biopsy-WF induced PGE2 release,primary mouse MSCs,equally abrogated
COc1ccc2cc(OCC3(C(=O)O)CN(C(=O)c4ccc(F)cc4)C3)ccc2c1 [PF-04418948],PGE2-induced VCAM1 expression,[2],no effect
same,PGE2-mediated arginase expression,[1],abrogated
same,biopsy-induced lung metastasis,Py230mCherry tumor,significantly reduced
CC(C)Cc1ccc(C(C)C(=O)O)cc1 (stereo not drawn) [ibuprofen],onset of metastasis,"4T1-Luc tumors; biopsied 4T1-Luc mice, daily oral 50 mg/kg for 9 days",delayed onset
same,metastasis incidence,"4T1-Luc tumors; biopsied 4T1-Luc mice, daily oral 50 mg/kg for 9 days, monitored 3 months, biopsied without drug 6/10",2/10
same,cellularity and COX2 expression in the biopsy wound,"4T1-Luc tumors; histopathology of mastectomized tumors, versus untreated biopsied",far less
same,effect on metastasis in mice that did not receive biopsy,"4T1-Luc tumors; unbiopsied 4T1-Luc mice, daily oral 50 mg/kg",no significant effect
same,PEG2 level in biopsied mouse tumors,[3],significantly reduced
same,biopsy-WF induced PGE2 release,primary mouse MSCs,equally abrogated
CCCCc1nn(-c2ccccc2C(F)(F)F)c(=O)n1Cc1ccc(-c2ccccc2S(=O)(=O)NC(=O)c2sccc2C)cc1 [L-161982],PGE2-induced VCAM1 expression,[2],blocked
same,PGE2-mediated arginase expression,[1],no inhibitory effect
Cc1cc(Cl)ccc1S(=O)(=O)NC[C@H]1C2CCC(CC2)[C@@H]1/C=C\CCCC(=O)O [0N08711],PGE2-induced VCAM1 expression,[2],no effect
same,PGE2-mediated arginase expression,[1],no inhibitory effect
"CCCCC[C@H](O)/C=C/[C@H]1[C@H](O)CC(=O)[C@@H]1C/C=C\CCCC(=O)O [PGE2, prostaglandin E2]",pulmonary metastasis of py230 BC cells,py230 BC cells,enhanced pulmonary metastasis
same,vessel permeability (Evans Blue leakage into the lungs),pulmonary vessels,increased vessel permeability
same,VCAM1 mRNA expression,[4],induce
same,VCAM1 mRNA expression,[5],induce
same,VCAM1 vascular expression,[6],elevated
same,shear resistant adhesion of human MSCs,HMVECs,2 fold
same,M1 marker mRNAs (iNOS and TNFα),[7],decrease
same,"M2 marker mRNA expression (arginase, YM1, YM2)",[7],increase
same,infiltration of GFP+ MSCs,lung,preferential infiltration to perivascular space
